Experimental data reported in ChEMBL document CHEMBL1201862, “PubChem BioAssay data set” (2004).
Active and inactive are the calls of the source.

Assays:
[1] = target: Cytochrome P450 2C9 (Homo sapiens, UniProt P11712)
[2] = target: Long-chain-fatty-acid--AMP ligase FadD28 (Mycobacterium tuberculosis, UniProt P9WQ59); test: Fluorescence polarization aasay to screen for inhibitors that compete for the binding of FadD28 to a bisubstrate Measured in Biochemical System Using Plate Reader - 2147-01_Inhibitor_Dose_CherryPick_Activity.; format: functional, Mycobacterium tuberculosis H37Rv
[3] = target: T1, Corticotropin-releasing factor receptor 2/Corticotropin-releasing factor-binding protein (Homo sapiens, UniProt P24387+Q13324); test: activators of CRF receptor 2 with binding protein – uHTS hits, confirmation (AID 602473); format: functional; conditions: read-out: EC50_Mean
T1 sequence (Q13324 whole entry): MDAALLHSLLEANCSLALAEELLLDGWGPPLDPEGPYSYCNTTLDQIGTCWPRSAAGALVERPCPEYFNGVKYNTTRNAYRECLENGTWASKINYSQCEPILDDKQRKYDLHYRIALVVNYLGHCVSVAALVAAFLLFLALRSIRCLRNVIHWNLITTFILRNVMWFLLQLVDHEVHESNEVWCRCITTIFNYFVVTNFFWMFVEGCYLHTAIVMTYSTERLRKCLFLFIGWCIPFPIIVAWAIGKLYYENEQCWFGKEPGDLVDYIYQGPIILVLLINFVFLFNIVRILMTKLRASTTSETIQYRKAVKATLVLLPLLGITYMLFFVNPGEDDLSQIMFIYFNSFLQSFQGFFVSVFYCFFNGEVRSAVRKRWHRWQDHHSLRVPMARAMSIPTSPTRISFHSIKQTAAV
T1 sequence (P24387 whole entry): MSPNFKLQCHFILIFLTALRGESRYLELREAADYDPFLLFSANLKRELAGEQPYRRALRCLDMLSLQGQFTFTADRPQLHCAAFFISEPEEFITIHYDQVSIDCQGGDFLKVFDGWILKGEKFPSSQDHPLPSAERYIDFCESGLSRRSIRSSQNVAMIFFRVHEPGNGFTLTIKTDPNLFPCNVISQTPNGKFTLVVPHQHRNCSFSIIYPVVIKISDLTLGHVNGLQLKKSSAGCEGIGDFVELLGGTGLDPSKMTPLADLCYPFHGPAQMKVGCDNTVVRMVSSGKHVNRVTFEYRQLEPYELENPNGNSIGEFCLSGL

[4] = target: T2, Endoribonuclease toxin MazF (Escherichia coli K-12, UniProt P0AE70); test: MazF toxin RNase activators, dose response, biochemical, fluorescence, single-stranded RNA substrate, uHTS hits (AID 588481); format: functional
T2 sequence (P0AE70 whole entry): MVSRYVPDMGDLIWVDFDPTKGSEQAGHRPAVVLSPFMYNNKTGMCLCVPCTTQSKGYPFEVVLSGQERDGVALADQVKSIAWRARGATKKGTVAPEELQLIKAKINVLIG

[5] = target: T2, Endoribonuclease toxin MazF; test: fluorescent RNA oligo signal without MazF, dose response, counter-screen for MazEF activator project, biochemical, fluorescence, single-stranded RNase substrate (AID 588502); format: functional
[6] = target: Cytochrome P450 3A4 (Homo sapiens, UniProt P08684);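 further: CYP3A4 tested as one member of a cytochrome P450 panel screen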
[7] = target: T1, Corticotropin-releasing factor receptor 2/Corticotropin-releasing factor-binding protein; test: Dose Response confirmation of uHTS hits for small molecule antagonists of the CRF-binding protein and CRF-R2 receptor complex.; format: functional; conditions: read-out: IC50_Mean
[8] = CRF-BP/CRF-R2 complex antagonists, dose response, cell-based, uHTS hits, 384-well (AID 651639); format: functional, Homo sapiens; conditions: read-out: IC50_Mean
[9] = target: T3, CAAX prenyl protease 2 (Saccharomyces cerevisiae S288c, UniProt Q03530); format: biochemical
T3 sequence (Q03530 whole entry): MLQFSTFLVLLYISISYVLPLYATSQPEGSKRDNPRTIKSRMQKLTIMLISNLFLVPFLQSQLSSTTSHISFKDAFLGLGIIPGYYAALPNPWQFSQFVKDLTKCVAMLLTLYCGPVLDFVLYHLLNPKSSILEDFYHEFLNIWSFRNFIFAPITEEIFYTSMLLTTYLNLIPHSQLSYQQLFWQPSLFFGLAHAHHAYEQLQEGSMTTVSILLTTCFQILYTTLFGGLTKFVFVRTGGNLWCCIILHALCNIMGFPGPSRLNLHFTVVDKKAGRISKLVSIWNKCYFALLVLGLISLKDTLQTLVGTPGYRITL

[10] = target: Trypsin (Sus scrofa, UniProt P00761); test: porcine trypsin inhibitors, dose response, selectivity assay for Rce1 protease inhibitor project, biochemical, quenched peptide fluorescence, cherry-pick (AID 488789)
[11] = target: DNA repair and recombination protein RAD54-like (Homo sapiens, UniProt Q92698); test: inhibitors of human RAD54 branch migration, confirmation, biochemical, fluorescence, cherry-picked samples, dose series (AID 651657); format: functional
[12] = target: T4, CAAX prenyl protease 2 (Homo sapiens, UniProt Q9Y256); test: human Rce1 protease inhibitors, dose response, biochemical, yeast membranes, quenched-peptide fluorescence, cherry-pick (AID 588849)
T4 sequence (Q9Y256 whole entry): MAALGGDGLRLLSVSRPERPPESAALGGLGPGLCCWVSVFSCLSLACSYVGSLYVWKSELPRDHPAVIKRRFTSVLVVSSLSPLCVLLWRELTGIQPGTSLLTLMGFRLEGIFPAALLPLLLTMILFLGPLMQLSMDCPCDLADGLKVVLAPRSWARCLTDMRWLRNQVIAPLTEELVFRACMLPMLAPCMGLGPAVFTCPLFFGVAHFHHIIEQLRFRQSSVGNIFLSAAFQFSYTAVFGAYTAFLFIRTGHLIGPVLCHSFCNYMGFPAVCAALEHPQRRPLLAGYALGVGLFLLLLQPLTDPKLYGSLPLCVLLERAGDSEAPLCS

[13] = ARNT/TACC3 interaction disruptors, potency, confirmation, biochemical, AlphaScreen, cherry-picked samples (AID 651703); format: functional, Homo sapiens;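 further: His-tagged ARNT PAS-B domain paired with GST-TACC3 E629A dimer coactivator fragment; potency of inhibitors that break up the complex and lower AlphaScreen signal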
[14] = cells; format: functional
[15] = miR-122 activators in hepatoma reporter cells, dose response, cell-based, Huh7 psiCHECK-miR122, Renilla luciferase, cherry-picked (AID 651956); format: functional;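 further: huh7 hepatoma cells stably carrying a psiCHECK-2 miR-122 sensor plasmid; renilla luciferase signal reporting endogenous miR-122 activity after 48 h compound exposure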
[16] = target: Glucose-6-phosphate 1-dehydrogenase (Homo sapiens, UniProt P11413); test: human G6PD enzyme inhibitors, dose response, selectivity assay for P. falciparum G6PD inhibitor project, biochemical, fluorescence (AID 504792); format: functional
[17] = target: T5, Short transient receptor potential channel 4 (Mus musculus, UniProt Q9QUQ5); test: mouse TRPC4 channel activators, dose response, cell-based, HEK293 TRPC4/mu-opioid, Fluo-4 calcium (AID 434937); format: functional
T5 sequence (Q9QUQ5 whole entry): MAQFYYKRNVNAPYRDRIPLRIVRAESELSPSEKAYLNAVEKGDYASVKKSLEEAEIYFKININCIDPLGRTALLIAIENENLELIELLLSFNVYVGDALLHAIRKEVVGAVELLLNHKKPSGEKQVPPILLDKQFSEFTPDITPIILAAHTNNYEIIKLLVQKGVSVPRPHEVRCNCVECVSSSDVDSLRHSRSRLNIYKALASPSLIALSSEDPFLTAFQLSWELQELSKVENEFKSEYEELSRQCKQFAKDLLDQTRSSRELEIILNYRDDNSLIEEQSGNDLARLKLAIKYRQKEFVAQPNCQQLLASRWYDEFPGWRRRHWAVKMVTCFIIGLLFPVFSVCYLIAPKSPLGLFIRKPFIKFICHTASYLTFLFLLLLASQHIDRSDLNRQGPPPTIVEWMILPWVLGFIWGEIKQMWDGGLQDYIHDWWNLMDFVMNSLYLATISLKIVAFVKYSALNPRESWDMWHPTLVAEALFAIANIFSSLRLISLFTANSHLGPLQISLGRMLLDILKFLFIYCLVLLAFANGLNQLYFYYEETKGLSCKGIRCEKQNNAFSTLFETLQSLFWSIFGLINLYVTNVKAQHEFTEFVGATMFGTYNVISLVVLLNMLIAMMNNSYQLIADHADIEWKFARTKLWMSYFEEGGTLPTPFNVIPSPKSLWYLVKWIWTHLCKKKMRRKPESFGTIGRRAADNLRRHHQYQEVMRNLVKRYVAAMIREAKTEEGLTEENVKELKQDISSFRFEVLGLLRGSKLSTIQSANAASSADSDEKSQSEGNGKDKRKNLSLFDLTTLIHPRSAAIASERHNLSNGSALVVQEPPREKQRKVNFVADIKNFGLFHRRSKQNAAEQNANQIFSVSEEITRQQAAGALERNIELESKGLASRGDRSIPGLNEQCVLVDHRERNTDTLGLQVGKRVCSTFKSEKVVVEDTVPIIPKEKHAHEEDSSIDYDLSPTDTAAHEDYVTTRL

[18] = target: T6, DNA repair protein RAD52 homolog (Homo sapiens, UniProt P43351); format: functional, biochemical
T6 sequence (P43351 whole entry): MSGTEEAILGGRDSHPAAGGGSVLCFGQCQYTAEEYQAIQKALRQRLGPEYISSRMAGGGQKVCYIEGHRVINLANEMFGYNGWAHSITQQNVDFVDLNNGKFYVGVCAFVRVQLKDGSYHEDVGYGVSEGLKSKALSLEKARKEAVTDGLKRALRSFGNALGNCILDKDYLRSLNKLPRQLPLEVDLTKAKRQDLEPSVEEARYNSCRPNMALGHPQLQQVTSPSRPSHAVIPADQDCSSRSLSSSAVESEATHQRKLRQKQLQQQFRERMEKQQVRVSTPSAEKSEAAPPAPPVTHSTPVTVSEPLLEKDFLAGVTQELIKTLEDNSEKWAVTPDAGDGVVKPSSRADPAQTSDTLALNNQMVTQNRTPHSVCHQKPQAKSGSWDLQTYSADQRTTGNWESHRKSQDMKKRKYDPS

[19] = target: T7, Apoptotic protease-activating factor 1 (Homo sapiens, UniProt O14727); format: functional
T7 sequence (O14727 whole entry): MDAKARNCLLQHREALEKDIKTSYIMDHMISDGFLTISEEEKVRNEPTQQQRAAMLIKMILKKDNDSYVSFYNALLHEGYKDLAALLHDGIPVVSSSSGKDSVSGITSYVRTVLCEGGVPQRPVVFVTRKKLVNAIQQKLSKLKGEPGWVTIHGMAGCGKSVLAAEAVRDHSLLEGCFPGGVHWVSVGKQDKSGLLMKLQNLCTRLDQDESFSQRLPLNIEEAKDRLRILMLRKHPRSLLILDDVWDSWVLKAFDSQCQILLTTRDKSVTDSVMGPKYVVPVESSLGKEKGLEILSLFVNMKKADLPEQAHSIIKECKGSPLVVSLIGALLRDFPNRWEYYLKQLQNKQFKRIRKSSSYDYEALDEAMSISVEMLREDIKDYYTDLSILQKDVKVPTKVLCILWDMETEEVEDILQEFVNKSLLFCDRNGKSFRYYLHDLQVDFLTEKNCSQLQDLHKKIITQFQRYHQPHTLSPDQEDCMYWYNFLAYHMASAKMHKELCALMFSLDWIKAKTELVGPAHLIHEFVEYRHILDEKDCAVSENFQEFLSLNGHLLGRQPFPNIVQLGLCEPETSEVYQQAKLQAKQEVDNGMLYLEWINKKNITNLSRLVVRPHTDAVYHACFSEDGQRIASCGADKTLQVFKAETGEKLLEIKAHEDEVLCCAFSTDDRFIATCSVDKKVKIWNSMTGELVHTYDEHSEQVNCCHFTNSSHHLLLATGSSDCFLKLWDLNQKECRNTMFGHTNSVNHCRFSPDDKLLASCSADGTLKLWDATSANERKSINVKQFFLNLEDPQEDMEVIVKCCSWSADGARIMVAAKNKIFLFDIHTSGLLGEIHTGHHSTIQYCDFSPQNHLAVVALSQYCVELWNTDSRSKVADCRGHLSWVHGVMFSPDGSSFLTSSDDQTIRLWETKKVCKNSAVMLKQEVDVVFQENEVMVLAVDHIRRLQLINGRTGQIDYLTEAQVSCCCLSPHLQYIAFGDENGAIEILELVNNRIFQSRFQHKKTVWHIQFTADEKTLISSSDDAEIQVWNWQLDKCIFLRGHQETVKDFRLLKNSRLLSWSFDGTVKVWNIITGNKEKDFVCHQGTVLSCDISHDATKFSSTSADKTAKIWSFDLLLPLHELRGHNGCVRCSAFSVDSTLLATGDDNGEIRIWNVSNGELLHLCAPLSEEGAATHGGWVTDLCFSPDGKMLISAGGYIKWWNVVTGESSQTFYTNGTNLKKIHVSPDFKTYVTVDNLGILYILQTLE

[20] = target: Genome polyprotein (dengue virus type 2, UniProt P29990); test: Dengue-2 NS5 methyltransferase inhibitors, primary screen, biochemical, confirmation dose response (AID 588689); format: functional
[21] = test system: Vero; test: Vero cell cytotoxicity, cytotoxicity control for flavivirus capping enzyme inhibitors (AID 588742); format: functional; conditions: Chlorocebus sabaeus

Chain of Long-chain-fatty-acid--AMP ligase FadD28 (P9WQ59 whole entry): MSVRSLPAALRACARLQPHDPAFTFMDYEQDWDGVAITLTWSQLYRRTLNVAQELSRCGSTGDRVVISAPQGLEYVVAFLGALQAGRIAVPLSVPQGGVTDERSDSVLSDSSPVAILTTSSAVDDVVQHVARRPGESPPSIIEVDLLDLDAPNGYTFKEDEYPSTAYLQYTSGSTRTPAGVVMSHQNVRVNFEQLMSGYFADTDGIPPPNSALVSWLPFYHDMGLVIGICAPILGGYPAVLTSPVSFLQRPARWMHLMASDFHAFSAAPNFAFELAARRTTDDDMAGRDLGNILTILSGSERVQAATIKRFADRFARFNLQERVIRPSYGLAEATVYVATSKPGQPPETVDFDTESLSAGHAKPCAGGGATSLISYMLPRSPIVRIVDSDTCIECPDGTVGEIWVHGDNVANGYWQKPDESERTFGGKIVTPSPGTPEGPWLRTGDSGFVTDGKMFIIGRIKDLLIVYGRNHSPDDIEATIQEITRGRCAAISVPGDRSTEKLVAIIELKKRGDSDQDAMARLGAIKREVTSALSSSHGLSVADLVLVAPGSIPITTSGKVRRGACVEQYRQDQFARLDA
Chain of DNA repair and recombination protein RAD54-like (Q92698 whole entry): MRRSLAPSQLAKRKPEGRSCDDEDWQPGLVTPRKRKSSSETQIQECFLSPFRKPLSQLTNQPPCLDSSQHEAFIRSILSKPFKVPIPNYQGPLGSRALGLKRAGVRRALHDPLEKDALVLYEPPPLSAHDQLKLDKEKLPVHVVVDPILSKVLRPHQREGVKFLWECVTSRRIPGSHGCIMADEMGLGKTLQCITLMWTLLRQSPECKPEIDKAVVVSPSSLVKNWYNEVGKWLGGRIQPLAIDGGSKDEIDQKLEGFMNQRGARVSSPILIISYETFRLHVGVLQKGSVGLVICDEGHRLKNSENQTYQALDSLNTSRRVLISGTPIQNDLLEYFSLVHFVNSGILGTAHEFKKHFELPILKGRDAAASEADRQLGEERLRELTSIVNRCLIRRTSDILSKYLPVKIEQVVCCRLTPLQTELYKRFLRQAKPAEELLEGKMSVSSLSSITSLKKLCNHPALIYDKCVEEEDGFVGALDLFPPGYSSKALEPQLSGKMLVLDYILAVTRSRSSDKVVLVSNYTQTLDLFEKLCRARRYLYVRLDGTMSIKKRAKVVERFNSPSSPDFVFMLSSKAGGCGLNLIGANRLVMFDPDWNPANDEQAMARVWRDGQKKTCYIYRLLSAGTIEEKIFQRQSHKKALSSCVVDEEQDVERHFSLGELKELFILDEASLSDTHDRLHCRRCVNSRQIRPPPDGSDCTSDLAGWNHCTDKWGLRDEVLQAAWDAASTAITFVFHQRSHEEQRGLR
Chain of Cytochrome P450 2C9 (P11712 whole entry): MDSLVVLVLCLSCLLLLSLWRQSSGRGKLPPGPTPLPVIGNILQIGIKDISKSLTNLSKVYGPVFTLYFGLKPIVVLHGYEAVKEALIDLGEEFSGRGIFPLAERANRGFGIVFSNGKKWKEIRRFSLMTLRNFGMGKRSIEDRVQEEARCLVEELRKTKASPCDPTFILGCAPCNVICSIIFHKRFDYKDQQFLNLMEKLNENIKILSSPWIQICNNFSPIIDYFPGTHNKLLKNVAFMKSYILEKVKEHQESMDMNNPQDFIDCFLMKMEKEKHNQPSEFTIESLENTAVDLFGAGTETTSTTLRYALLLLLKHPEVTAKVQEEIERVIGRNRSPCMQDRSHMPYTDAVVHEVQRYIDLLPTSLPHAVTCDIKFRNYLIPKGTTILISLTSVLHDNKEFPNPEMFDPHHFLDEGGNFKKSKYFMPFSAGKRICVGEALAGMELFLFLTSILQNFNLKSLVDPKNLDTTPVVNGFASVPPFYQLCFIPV
Chain of Glucose-6-phosphate 1-dehydrogenase (P11413 whole entry): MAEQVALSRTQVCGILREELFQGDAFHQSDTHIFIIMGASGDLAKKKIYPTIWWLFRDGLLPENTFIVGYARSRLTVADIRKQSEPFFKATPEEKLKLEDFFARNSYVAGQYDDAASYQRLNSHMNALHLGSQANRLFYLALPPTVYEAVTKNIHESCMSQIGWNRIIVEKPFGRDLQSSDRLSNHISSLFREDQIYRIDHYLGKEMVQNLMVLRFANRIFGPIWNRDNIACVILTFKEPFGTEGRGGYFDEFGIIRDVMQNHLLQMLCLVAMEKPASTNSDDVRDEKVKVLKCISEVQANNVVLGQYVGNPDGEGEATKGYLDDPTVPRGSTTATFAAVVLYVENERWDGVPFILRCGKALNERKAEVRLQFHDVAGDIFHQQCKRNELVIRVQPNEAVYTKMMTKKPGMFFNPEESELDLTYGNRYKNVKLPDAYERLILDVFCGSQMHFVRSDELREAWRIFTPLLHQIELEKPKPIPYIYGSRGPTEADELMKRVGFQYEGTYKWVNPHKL
Chain of Cytochrome P450 3A4 (P08684 whole entry): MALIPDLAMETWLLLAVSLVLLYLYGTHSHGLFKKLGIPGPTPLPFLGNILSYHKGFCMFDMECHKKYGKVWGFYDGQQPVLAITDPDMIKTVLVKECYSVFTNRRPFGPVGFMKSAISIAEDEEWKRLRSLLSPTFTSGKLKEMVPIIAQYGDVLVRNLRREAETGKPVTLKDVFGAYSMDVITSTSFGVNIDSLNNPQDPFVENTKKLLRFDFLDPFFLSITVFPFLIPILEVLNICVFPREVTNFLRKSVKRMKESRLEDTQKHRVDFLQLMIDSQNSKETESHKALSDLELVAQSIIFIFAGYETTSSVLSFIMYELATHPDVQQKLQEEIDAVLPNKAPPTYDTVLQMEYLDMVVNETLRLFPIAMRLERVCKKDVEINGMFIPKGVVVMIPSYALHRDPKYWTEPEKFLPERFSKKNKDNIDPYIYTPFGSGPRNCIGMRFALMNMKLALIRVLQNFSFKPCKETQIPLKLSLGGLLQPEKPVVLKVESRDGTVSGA
Chain of Trypsin (P00761 whole entry): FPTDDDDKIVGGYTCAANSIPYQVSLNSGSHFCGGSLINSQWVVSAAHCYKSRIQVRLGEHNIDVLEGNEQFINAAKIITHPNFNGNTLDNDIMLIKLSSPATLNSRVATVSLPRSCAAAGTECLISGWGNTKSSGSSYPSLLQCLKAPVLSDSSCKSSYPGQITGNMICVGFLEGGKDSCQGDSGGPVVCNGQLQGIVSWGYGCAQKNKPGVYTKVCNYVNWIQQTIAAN
Chain of Genome polyprotein (P29990 2492-3391 limits assumed): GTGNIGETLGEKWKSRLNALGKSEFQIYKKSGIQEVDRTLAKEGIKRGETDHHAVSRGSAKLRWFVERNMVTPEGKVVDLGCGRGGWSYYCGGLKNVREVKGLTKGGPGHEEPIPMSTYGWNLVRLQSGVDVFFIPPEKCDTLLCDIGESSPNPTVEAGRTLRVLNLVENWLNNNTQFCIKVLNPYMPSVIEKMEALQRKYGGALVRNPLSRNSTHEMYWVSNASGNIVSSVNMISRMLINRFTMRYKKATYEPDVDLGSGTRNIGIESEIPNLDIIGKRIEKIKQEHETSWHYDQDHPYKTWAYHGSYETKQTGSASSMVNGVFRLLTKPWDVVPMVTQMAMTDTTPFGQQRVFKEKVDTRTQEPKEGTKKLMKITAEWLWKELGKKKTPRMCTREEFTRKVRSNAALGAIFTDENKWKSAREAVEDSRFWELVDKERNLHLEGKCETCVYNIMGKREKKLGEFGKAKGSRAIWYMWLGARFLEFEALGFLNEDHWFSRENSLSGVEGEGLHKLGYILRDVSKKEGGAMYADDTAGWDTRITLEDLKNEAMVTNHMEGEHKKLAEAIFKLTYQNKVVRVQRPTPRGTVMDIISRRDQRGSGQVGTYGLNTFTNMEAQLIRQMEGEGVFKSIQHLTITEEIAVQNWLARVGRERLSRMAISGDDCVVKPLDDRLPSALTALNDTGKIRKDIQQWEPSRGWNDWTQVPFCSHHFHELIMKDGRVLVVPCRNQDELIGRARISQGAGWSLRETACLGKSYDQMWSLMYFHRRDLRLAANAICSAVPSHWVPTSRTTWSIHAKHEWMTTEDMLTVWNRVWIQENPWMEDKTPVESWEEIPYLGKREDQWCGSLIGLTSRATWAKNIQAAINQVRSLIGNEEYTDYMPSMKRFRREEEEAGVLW

In the case of `CC1=Nc2ccccc2/C1=C\c1nc(-c2ccc(C(F)(F)F)cc2)oc1O`, the AC50 [1] is reported as 12.6 µM (inconclusive), the AC50 [2] is reported as > 100 µM (inactive) and the EC50 [3] is reported as 10.2 µM (active). For the same compound, the EC50 [4] was > 99 µM (inactive), the EC50 [5] was > 99 µM (inactive) and the AC50 [6] was 28.2 µM (inconclusive).
In the case of `COc1ccc(C2CCCN2C(=O)Nc2ccc(C)c(C)c2)cc1OC` (configuration not stated), the EC50 [3] is reported as > 53 µM (inactive), the IC50 [7] is reported as 42.4 µM (active) and the IC50 [8] is reported as > 20 µM (inactive).
For `COc1ccc2c(c1)c1ncn(CCN3CCCCC3)c(=O)c1n2C`, the AC50 [9] was 13.9 µM (active), the AC50 [10] was 13.1 µM (active) and the AC50 [11] was 35 µM (active). The AC50 [12] was 4.82 µM (active).
With `COCCn1c(C)cc(C(=O)COC(=O)c2ccc([N+](=O)[O-])o2)c1C` the AC50 [13] was 117 µM (active) and the IC50 [14] was < 100 nM (active).
For `COc1ccc(S(=O)(=O)N(C)C[C@@H]2Oc3ncc(/C=C/c4ccccc4)cc3C(=O)N([C@@H](C)CO)C[C@@H]2C)cc1`, the AC50 [15] was 2.03 µM (active).
In the case of `COc1ccc(Cl)cc1NC(=O)c1cccc([N+](=O)[O-])c1O`, the EC50 [3] is reported as > 53 µM (inactive), the IC50 [7] is reported as 2.55 µM (active) and the IC50 [16] is reported as 46.5 µM (inactive). For the same compound, the IC50 [8] was 8.13 µM (active).
In the case of `CCCN(CCC)CCCNC(=O)c1cc2c(-c3ccc(OC)c(OC)c3)nn(C)c2s1`, the EC50 [17] is reported as 531 nM (active), the AC50 [18] is reported as 3.41 µM (active) and the AC50 [11] is reported as 9.65 µM (active).
For `Cc1coc2c1C(=O)C(=O)c1c-2ccc2c1CCCC2(C)C` [TANSHINONE IIA], the AC50 [2] was 88.9 µM (active), the IC50 [19] was 4.82 µM (active) and the IC50 [20] was > 100 µM (active). For the same compound, the CC50 [21] was 9.09 µM (active).
